Data as given in the METLIN SMRT retention time set (Domingo-Almenara et al. 2019).

Assay: gradient 5% acetonitrile 3 min, to 50% in 2 min, to 85% in 15 min, held 3 min, 100 µL/min
Conditions: column: Zorbax Extend-C18 2.1 x 50 mm; eluents: water / acetonitrile, 0.1% formic acid
Summary of the method: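 Each retention time is based on an adduct peak selected computationally and verified by manual inspection. Measurements used HPLC–quadrupole time-of-flight mass spectrometry in positive and negative ionization mode on mixtures of ~100 pure standards. Chromatography ran on a Zorbax Extend-C18 column (2.1 × 50 mm, 1.8 μm) at 100 μL/min with water and acetonitrile, each containing 0.1% formic acid, and dead and dwell volumes of 40 μL and 900 μL.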

SMILES | RP-LC retention time
CCOC(=O)c1cc(S(=O)(=O)N2CCCC2C(=O)N(Cc2ccco2)C2CCCC2)cn1C (configuration not stated) | 992 s
Cc1ccc(Nc2c(-c3ccc(N(C)C)cc3)nc3c(C)cccn23)cc1 | 805 s
Cc1ccc(S(=O)(=O)NC2CCN(C(=O)c3ccnn3C)CC2)cc1 | 688 s
COCCN1C(=O)CCc2cc(NS(=O)(=O)c3ccc(F)cc3)ccc21 | 759 s
COc1cc2c(cc1OC)C(=O)C(CC1CCN(Cc3ccccc3)CC1)C2 (configuration not stated) | 690 s
COc1ccc(NC(=O)N2CCCC2c2nc(-c3ccccc3OC)no2)cc1Cl (configuration not stated) | 892 s
CCN(CC)c1cc2c(cc1NC(=O)c1ccco1)n(C)c(=O)c(=O)n2C | 724 s
CCc1nc(-c2ccc(-c3noc(CNS(=O)(=O)c4ccccc4)n3)cc2)cs1 | 1020 s
COc1cc(-c2cc(CN(CC3CCCO3)C(=O)C3CCCCC3)no2)cc(OC)c1OC (configuration not stated) | 968 s
Cc1nc(-c2ccc(N3CCN(C(=O)c4ccc(Cl)cc4)CC3)nc2)sc1C | 946 s
CC(C)c1nncn1C1CCN(S(=O)(=O)c2cccc(F)c2)CC1 | 707 s
CCn1nc(C)c(CCNC(=O)c2cc3c(=O)n(CCOC)ccc3nc2C)c1C | 576 s
CCc1nnc(-c2nnc(NC3CCCCCC3)c3ccccc23)o1 | 821 s
O=C(COc1ccccc1)N1[C@H]2CC[C@@H]1c1cnc(-c3ccccc3)nc1C2 | 952 s
COc1ccc(OC)c2[nH]c(C(=O)N3CCCC3)cc12 | 823 s
COc1cccc(NC(=O)C2CCN(C(=O)C3CC(=O)N(c4ccccc4)C3)CC2)c1 (configuration not stated) | 714 s
CN(C)C(=O)c1ccc2oc(CN3CCN(C(=O)NC4CCCCC4)CC3)nc2c1 | 614 s
O=C(NC(c1ccccc1)c1nnc(N2CCCCC2)o1)c1ccc2c(c1)OCO2 (configuration not stated) | 847 s
CN1CCN(C(=O)c2csc(N3CCN(c4ccccc4F)CC3)n2)CC1 | 649 s
N#Cc1ccc(NC2c3ccccc3CC2O)cc1 (configuration not stated) | 822 s

SMILES | RP-LC retention time
Cc1cccc(N2CCN(C(=O)CN3CCN(Cc4ccccc4F)C3=O)CC2)c1 | 864 s
Cc1oc(-c2[nH]ncc2C(=O)N2CCCC2)cc1S(=O)(=O)NCc1cccc(Cl)c1 | 796 s
COc1ccc(-c2cc(N3CCN(C(=O)COc4ccc(C)cc4OC)CC3)ncn2)cc1 | 608 s
COc1ccc(Cl)cc1NC(=O)C1(c2ccccc2)CCOCC1 | 1010 s
O=C(NCCc1csc(-c2cccs2)n1)C1CCN(S(=O)(=O)c2cccc(Cl)c2)CC1 | 975 s
Cc1nc(C2(C)CCN(S(=O)(=O)c3ccccc3Cl)CC2)no1 | 911 s
O=C1CSC(c2cccs2)N1c1nncs1 (configuration not stated) | 804 s
COc1cccc(C2Nc3ccccc3NC3=C2C(=O)CC(C)(C)C3)c1O (configuration not stated) | 686 s
Cc1ccc2[nH]c(C(=O)N3CCOCC3)cc2c1 | 582 s
O=C(Nc1ccc2nc3n(c(=O)c2c1)CCCCC3)C(=O)NC1CC1 | 687 s
O=C(O)c1cn(-c2ccc(F)c(F)c2)nn1 | 664 s
Cc1ccsc1C(=O)Nc1cnc(-c2cccc(Cl)c2)nc1 | 1130 s
CCOCCCNC(=O)c1cc2sc(Cl)cc2n1C | 939 s
Cc1ccc(-n2nc(N3CCCC(C(=O)NCc4ccccc4F)C3)ccc2=O)cc1Cl (configuration not stated) | 942 s
CCc1nc2cc3c(cc2n1CC(=O)Nc1ccc2c(c1)OCCO2)OCCO3 | 618 s
COc1ccc(-c2cc3n(n2)CCCN(C(=O)NCCc2ccccc2)C3)cc1 | 814 s
CCCOc1ccc(-c2nc(N3CCCCC3)c3ccccc3n2)cc1 | 930 s
CCOc1ccccc1C(=O)Nc1ccc(Cl)c(C(F)(F)F)c1 | 1230 s
O=C1NC(C(=O)NCc2ccco2)Cn2cccc21 (configuration not stated) | 605 s

The next lines start with the values.

RP-LC retention time | SMILES
810 s | Cc1cccc(NC(=O)c2ccc3nn(CC(=O)Nc4ccc(C)c(F)c4)c(=O)n3c2)c1
907 s | CCN1C(=O)c2cccnc2Sc2cc(NC(=O)c3ccc(Cl)cc3)ccc21
958 s | Cc1ccc(CNC(=O)N2CC=C(c3cn(C(C)C)c4ncccc34)CC2)cc1
559 s | O=C1NCCCCCCN(Cc2ccncc2)[C@@H]2CN(C3CCC3)CC[C@H]12
728 s | O=C(Nc1ccccc1-c1nc2ccccc2s1)c1ccno1
786 s | COc1ccc(CSc2nccc3c2ccn3CC(=O)N2CCN(c3ccccc3)CC2)cc1
618 s | CCCn1nc(C)cc1CN(C)c1ccc(NC(=O)CC)cc1C(=O)O
1280 s | Cc1nn(-c2nc(-c3ccc(F)cc3)cs2)c(C)c1CC(=O)Nc1cccc(C(F)(F)F)c1
729 s | COc1ccc(NC(=O)Cn2c(=O)n(-c3ccccc3)c3ncccc32)cc1OC
738 s | Cc1ccc2nc(C(=O)N3CCN(c4ccc(Cl)cc4)CC3)cn2c1
628 s | CC(NC(=O)C1CCN(c2cncnc2N2CCOCC2)CC1)c1ccc(F)cc1 (configuration not stated)
1330 s | CCn1cc(-c2nc(C(=O)Nc3ccccc3Cl)cs2)c2cccnc21
730 s | O=C(Nc1ccccc1)C1CC(=O)N(c2n[nH]c3cccc(F)c23)C1 (configuration not stated)
632 s | CC1(O)CCOC2(CCN(Cc3ccccc3OC(F)(F)F)CC2)C1 (configuration not stated)
637 s | CCOc1ccc(N2CCn3c2nnc(C(=O)NCC2CCCO2)c3=O)cc1 (configuration not stated)
679 s | COc1ccc(-c2ncc3c(=O)n(Cc4ccccc4C)c(=O)n(C)c3n2)cc1
820 s | COc1ccc(-c2nnc(COc3ccc(NC(=O)c4cccnc4Cl)cc3)o2)cc1
895 s | COCCC(=O)Nc1cnc(-c2ccc(C(F)(F)F)cc2)nc1
704 s | Cc1ccc(NC(=O)Nc2cccc(-c3ccc(N4CCOCC4)nn3)c2)cc1
679 s | Cc1oc(-c2ccc(Cl)cc2)nc1CN1CCCC(C(=O)N2CCN(C(=O)c3ccco3)CC2)C1 (configuration not stated)
1150 s | CCN1C(=O)COc2ccc(-c3nc(NC(=O)c4cccc(Br)c4)sc3C)cc21
677 s | Cc1nnc2c(=O)n(CC(=O)NC(C)c3ccc(F)cc3)c3cccnc3n12 (configuration not stated)
903 s | COc1ccc(NC(=O)C2CCN(C(=O)c3nnc(C(=O)Nc4ccc(F)cc4)s3)CC2)cc1
568 s | O=C(C1CCCN(c2cnc3nccnc3c2)C1)N1CCN(c2ccccn2)CC1 (configuration not stated)
924 s | COC(=O)COC(=O)c1cn(-c2ccc(OC)cc2)c(=O)c2ccccc12
825 s | CC(C)CCNC(=O)c1cn2cc(Cl)ccc2n1
654 s | Cc1ncsc1C1N(C2CCN(C(=O)c3cnccn3)CC2)C(=O)C12CCCC2 (configuration not stated)
636 s | Clc1cccc(-c2noc(Cn3ccnc3)n2)c1
